Measured values as given in patent US10047105B2, “Gyrase inhibitors” (Merck Sharp & Dohme Corp., priority 2009, dated 2018).
In brackets after ≈: the same amount, converted by molar mass.

How the values were obtained:
S. aureus ATCC 13709 = test: MIC, antibacterial potency, S. aureus; format: cell-based
S. pneumoniae ATCC 51916 = test: MIC, S. pneumoniae; format: cell-based
[1] = S. pneumoniae (Spn52), in µg/mL

SMILES	MIC, SA (S. aureus ATCC 13709; S. aureus (SA), in µg/mL)	MIC Spn52 (S. pneumoniae ATCC 51916; [1])	MIC, SA (S. aureus ATCC 13709; S. aureus)	MIC Spn52 (S. pneumoniae ATCC 51916; S. pneumoniae)
CCc1[nH]c2nc(Sc3cc(OC)c4c(N)nc(C)nc4c3)nc(N3CC[C@@H](N)C3)c2c1Cl [700,863]	8	8		
CCc1[nH]c2nc(Sc3cnc4nccnc4c3)nc(N3CC(NC(=O)CN4CCNCC4)C3)c2c1Cl.O=C(O)C(F)(F)F.O=C(O)C(F)(F)F [700,504]			4 µg/mL	32 µg/mL
CCOc1nc(Sc2nc(C(=O)N[C@H]3CCOC3=O)co2)nc2[nH]c(CC)c(Br)c12 [700,294]			> 64 µg/mL	> 64 µg/mL
CCc1[nH]c2nc(Sc3cnc4nccnc4c3)nc(N3C[C@@H]4[C@@H](N)[C@@H]4C3)c2c1Cl [700,816]	<=0.5	<=0.5		
CCc1[nH]c2nc(Sc3cccnc3)nc(N3CC(N)C3)c2c1Cl [700,560]			8 µg/mL (≈ 22.2 µM)	32 µg/mL (≈ 88.7 µM)
CCc1[nH]c2nc(Sc3cnc4nccnc4c3)nc(N3CCC(CN)CC3)c2c1Cl [700,829]	16	32		
CCc1[nH]c2nc(Sc3cnc4nccnc4c3)nc(N3CC(CNC(=O)CCN4CCCCC4)C3)c2c1Cl [700,518]			4 µg/mL (≈ 7.07 µM)	4 µg/mL (≈ 7.07 µM)
CCc1[nH]c2nc(Cc3cccnc3)nc(N3CCC(N4CCOCC4)C3)c2c1Cl (stereo not shown) [700,587]			64 µg/mL (≈ 150 µM)	> 64 µg/mL
CCc1[nH]c2nc(Sc3cnc4nccnc4c3)nc(N3CC(O)C3)c2c1Br [700,392]			≤ 0.5 µg/mL	≤ 0.5 µg/mL
CCc1[nH]c2nc(Sc3cnc4cccnc4c3)nc(N3CC(C(=O)N4CC(N)C4)C3)c2c1Cl [700,876]	8	8		
CCc1[nH]c2nc(Oc3cncnc3)nc(Oc3cncnc3)c2c1Cl.O=C(O)C(F)(F)F [700,551]			2 µg/mL	4 µg/mL
CCc1[nH]c2nc(Sc3nc(C(=O)OC)c(Cl)s3)nc(OCC3CCC3)c2c1Cl [700,328]			> 64 µg/mL	64 µg/mL (≈ 135 µM)
CCc1[nH]c2nc(Sc3ccc4cc(C(=O)N5CC[C@@H](N)C5)cnc4c3)nc(N3CC[C@@H](N)C3)c2c1Cl [700,695]			16 µg/mL (≈ 29.8 µM)	32 µg/mL (≈ 59.6 µM)
CCc1[nH]c2nc(Sc3cc(=O)n(CC4CC4)c(=O)[nH]3)nc(N3CC(O)C3)c2c1Br [700,416]			≤ 0.5 µg/mL	2 µg/mL (≈ 4.05 µM)
CCc1[nH]c2nc(Sc3ccc4c(c3)C(=O)NC4)nc(N3CC[C@@H](N)C3)c2c1Cl [700,711]			1 µg/mL (≈ 2.33 µM)	8 µg/mL (≈ 18.7 µM)
CCc1[nH]c2nc(Sc3ccc(C#N)nc3)nc(N3CC[C@@H](N)C3)c2c1Cl [700,818]	2	8		
CCOc1nc(Nc2ccc3cccnc3c2)nc2[nH]c(CC)c(Br)c12.O=C(O)C(F)(F)F [700,388]			4 µg/mL	16 µg/mL
CCc1[nH]c2nc(Sc3cnc4nccnc4c3)nc(N3CC(NCc4cccnc4)C3)c2c1Cl [700,539]			≤ 0.5 µg/mL	1 µg/mL (≈ 1.98 µM)
CCc1[nH]c2nc(Sc3cnc4nccnc4c3)nc(N3CC(NS(=O)(=O)c4cnoc4C)C3)c2c1Cl [700,437]			≤ 0.5 µg/mL	2 µg/mL (≈ 3.58 µM)
CCc1[nH]c2nc(Sc3ccc4cc(C(=O)O)cnc4c3)nc(N3CC[C@@H](N)C3)c2c1Cl [700,705]			> 64 µg/mL	> 64 µg/mL
CCc1[nH]c2nc(Sc3cnc4nccnc4c3)nc(N(C)C[C@@H](O)c3cccc(O)c3)c2c1Cl.O=C(O)C(F)(F)F [700,570]			1 µg/mL	8 µg/mL
CCc1[nH]c2nc(Sc3nc(C(=O)O)cs3)nc(NCCCn3ccnc3)c2c1Cl [700,323]			> 64 µg/mL	> 64 µg/mL
CCc1[nH]c2nc(Sc3ccc4cc(C(=O)N[C@H]5CCOC5=O)cnc4c3)nc(N3CC[C@@H](N)C3)c2c1Cl [700,697]			4 µg/mL (≈ 7.25 µM)	8 µg/mL (≈ 14.5 µM)
CCc1[nH]c2nc(Cc3cccnc3)nc(N3CC(NC(=O)OC(C)(C)C)C3)c2c1Cl [700,461]			1 µg/mL (≈ 2.26 µM)	> 64 µg/mL
CCc1[nH]c2nc(Nc3cnc4c(c3)nnn4C(C)C)nc(OC)c2c1Br.O=C(O)C(F)(F)F [700,535]			≤ 0.5 µg/mL	4 µg/mL
CCc1[nH]c2nc(Sc3cnc4nccnc4c3)nc(N3CC(CNC(=O)c4cn(C)nc4C(F)(F)F)C3)c2c1Cl [700,524]			≤ 0.5 µg/mL	≤ 0.5 µg/mL
CCc1[nH]c2nc(Sc3cnc4cccnc4c3)nc(N3CC4CNC4C3)c2c1Cl (stereo not shown) [700,660]			≤ 0.5 µg/mL	1 µg/mL (≈ 2.28 µM)

SMILES	MIC, SA (S. aureus ATCC 13709; S. aureus (SA), in µg/mL)	MIC Spn52 (S. pneumoniae ATCC 51916; [1])	MIC, SA (S. aureus ATCC 13709; S. aureus)	MIC Spn52 (S. pneumoniae ATCC 51916; S. pneumoniae)
CCOC(=O)c1cnc(Sc2nc(OCC)c3c(Br)c(CC)[nH]c3n2)s1 [700,291]			> 64 µg/mL	> 64 µg/mL
CCc1[nH]c2nc(Sc3cnc4cccnc4n3)nc(N3CC(O)C3)c2c1Cl [700,345]			≤ 0.5 µg/mL	2 µg/mL (≈ 4.83 µM)
CCc1[nH]c2nc(Sc3nc(C(=O)NOC)cs3)nc(N3CCN(C(C)=O)CC3)c2c1Cl.O=C(O)C(F)(F)F [700,364]			32 µg/mL	> 64 µg/mL
CCc1[nH]c2nc(Cl)nc(Oc3ccc4nccnc4c3)c2c1Cl [700,612]			> 64 µg/mL	> 64 µg/mL
CCc1[nH]c2nc(Sc3cnc4ccoc4c3)nc(N3CC4CNC4C3)c2c1Cl.O=C(O)C(F)(F)F (stereo not shown) [700,677]			2 µg/mL	8 µg/mL
CCc1[nH]c2nc(Sc3cccnc3)nc(NCCCn3ccnc3)c2c1Br.O=C(O)C(F)(F)F.O=C(O)C(F)(F)F [700,269]			4 µg/mL	16 µg/mL
CCc1[nH]c2nc(Sc3cncc(C#N)c3)nc(N3CC[C@@H](N)C3)c2c1Cl [700,824]	2	8		
CCc1[nH]c2nc(Sc3cnc4nccnc4c3)nc(N3CC(NS(C)(=O)=O)C3)c2c1Br [700,470]			≤ 0.5 µg/mL	1 µg/mL (≈ 1.87 µM)
CCc1[nH]c2nc(Sc3cc(=O)[nH]c(=O)[nH]3)nc(N3CC4CNC4C3)c2c1Cl.O=C(O)C(F)(F)F (stereo not shown) [700,627]			4 µg/mL	16 µg/mL
CCc1[nH]c2nc(Cc3cccnc3)nc(N(C)C)c2c1Cl [700,478]			64 µg/mL (≈ 203 µM)	> 64 µg/mL
CCc1[nH]c2nc(Sc3cnc4nccnc4c3)nc(OS(=O)(=O)c3ccc(C)cc3)c2c1Cl [700,558]			8 µg/mL (≈ 15.6 µM)	> 64 µg/mL
CCc1[nH]c2nc(Sc3cccnc3)nc(Cl)c2c1Cl.O=C(O)C(F)(F)F [700,268]			4 µg/mL	16 µg/mL
CCc1[nH]c2nc(Sc3cnc(N)nc3)nc(N3CC[C@@H](N)C3)c2c1Cl [700,788]	8	16		
CCc1[nH]c2nc(Sc3nc(C(=O)O)c(Cl)s3)nc(N3CCC(N)C3)c2c1Cl (stereo not shown) [700,559]			> 64 µg/mL	> 64 µg/mL
CCc1[nH]c2nc(Sc3cncnc3)nc(N3CC4CCNC4C3)c2c1Cl (stereo not shown) [700,802]	4	16		
CCCn1c(=O)cc(Sc2nc(N3CC(O)C3)c3c(Br)c(CC)[nH]c3n2)[nH]c1=O [700,414]			≤ 0.5 µg/mL	1 µg/mL (≈ 2.08 µM)
CCc1[nH]c2nc(Sc3cnc4nccnc4c3)nc(N3CC(N4CCOCC4)C3)c2c1Cl.O=C(O)C(F)(F)F.O=C(O)C(F)(F)F [700,606]			2 µg/mL	4 µg/mL
CCc1[nH]c2nc(Sc3cnc4nccnc4c3)nc(N3CC4CNC4C3)c2c1Cl.O=C(O)C(F)(F)F (stereo not shown) [700,548, 7-(4-(3,6-diazabicyclo[3.2.0]heptan-3-yl)-5-chloro-6-ethyl-7H-pyrrolo[2,3-d]pyrimidin-2-ylthio)pyrido[3,2-b]pyrazine]			≤ 0.5 µg/mL	2 µg/mL
CCc1[nH]c2nc(Sc3cc(=O)[nH]c(=O)[nH]3)nc(N3CC(O)C3)c2c1Br [700,360]			≤ 0.5 µg/mL	2 µg/mL (≈ 4.55 µM)
CCc1[nH]c2nc(Sc3cccnc3)nc(NC[C@H](C)O)c2c1Br.O=C(O)C(F)(F)F [700,270]			2 µg/mL	8 µg/mL
CCc1[nH]c2nc(Sc3cnc4nccnc4c3)nc(N3CC(C)(CN)C3)c2c1Cl.O=C(O)C(F)(F)F.O=C(O)C(F)(F)F [700,607]			8 µg/mL	16 µg/mL
CCOc1nc(Sc2nc(OC)c3cccnc3n2)nc2[nH]c(CC)c(Cl)c12 [700,339]			> 64 µg/mL	> 64 µg/mL
CCc1[nH]c2nc(Sc3cnc4nccnc4c3)nc(N3CC4C(C3)C4NC(=O)OC(C)(C)C)c2c1Cl.O=C(O)C(F)(F)F.O=C(O)C(F)(F)F (stereo not shown) [700,608]			1 µg/mL	2 µg/mL
CCc1[nH]c2nc(Sc3ccc4cc(C(=O)O)c(C(=O)O)nc4c3)nc(N3CC[C@@H](N)C3)c2c1Cl [700,859]	32	>64		
CCc1[nH]c2nc(Sc3cnc4nccnc4c3)nc(N3C[C@@H]4[C@H](C3)[C@H]4N(Cc3ccccc3)Cc3ccccc3)c2c1Cl [700,822]	>64	>64		
CCc1[nH]c2nc(Sc3cnc4cccnc4c3)nc(N3CC(Cc4cncnc4)C3)c2c1Cl [700,867]	<=0.5	1		
